Reference: patent US20240423982A1 (Eli Lilly and Company, priority 2023, published 2024)

Tested on: new-onset type-1 diabetes patients
Assay: randomized placebo-controlled study of baricitinib 4 mg per day for 48 weeks in new-onset type 1 diabetes
Assay type: in vivo, human
Procedure: Participants: Eligibility criteria included age between 10 and 30 years, diagnosis of type 1 diabetes according to ADA criteria within 100 days of starting study drug, presence of at least one islet autoantibody and either random C-peptide>0.3 pmol/mL or C-peptide>0.2 pmol/mL per during a 2 h MMTT. Exclusion criteria included treatment with other immunomodulatory agents, and clinically significant comorbidities including cytopenias, known malignancy, history of thrombosis or LDL cholesterol>155 mg/dL. All participants received standard diabetes management with a target HbA1c of less than 7% in adults and less than 7.5% in participants less than 18 years of age, in accordance with current ADA recommendations.
Primary, secondary, and exploratory outcomes: The primary outcome was the average C-peptide during a 2 h MMTT at 48 weeks, calculated as the area under the trapezoidal curve divided by 120 minutes. Secondary outcomes included HbA1c, total daily insulin use, CGM measures from the ambulatory glucose profile. Participants were requested to wear either a Freestyle Libre2 or Dexcom G6 CGM for 14 days at baseline, 12, 24, 48, 72 and 96 weeks. Exploratory mechanistic outcomes included the assessment of basal and cytokine-stimulated phosphorylation of STAT proteins in fresh whole blood, and the frequency of T-cell subsets in PBMC. Samples for these were collected at baseline and 24 weeks.

[1] = weeks 12 and 24, but not week 48, versus placebo

**Q.** `CCS(=O)(=O)N1CC(CC#N)(n2cc(-c3ncnc4[nH]ccc34)cn2)C1` [baricitinib, {1-(ethylsulfonyl)-3-[4-(7H-pyrrolo[2,3-d]pyrimidin-4-yl)-1H-pyrazol-1-yl]azetidin-3-yl}acetonitrile] was tested. Which tolerability (4 mg per day orally, 48 weeks) did it give?
**A.** well tolerated

**Q.** What about the “glucose coefficient of variation (CGM)” value (12, 24 and 48 weeks, versus placebo) of the same compound?
**A.** improved significantly

**Q.** And the HbA1c (48 weeks, mean±SEM, placebo 7.4±0.27, p=0.216)?
**A.** 7.0%

**Q.** And the “insulin use compared to placebo” value (FIG. 1B, over treatment)?
**A.** significantly lower insulin use

**Q.** And the “lipid profile, liver function or renal function versus placebo” value (baseline, 12, 24, or 48 weeks)?
**A.** no significant differences

**Q.** What about the “time below range <70 mg/dl (<3.9 mmol/L) (CGM)” value (between groups) of the same compound?
**A.** no significant differences

**Q.** And the “median number of AEs” value (placebo 3)?
**A.** 2

**Q.** What about the “SAEs attributed to study medication” value (total of seven SAEs recorded in both groups) of the same compound?
**A.** none of which were attributed to study medication

**Q.** And the “median C-peptide during 2 h MMTT” value (week 48, 4 mg per day orally, placebo 0.45 (0.13-0.63), p=0.001)?
**A.** 0.65 (0.31-0.82) pmol/mL/min

**Q.** And the daily insulin dose (week 48, median, placebo 0.48 (0.37-0.64), p=0.004)?
**A.** 0.39 (0.22-0.57) U/kg/day

**Q.** And the “C-peptide decline compared to baseline” value (week 48, placebo 29.5%, p=0.008)?
**A.** 5.5%

**Q.** And the “HbA1c difference between groups” value (weeks 12, 24 or 48)?
**A.** did not differ significantly

**Q.** What about the “daily insulin requirement versus baseline” value (weeks 12 and 24) of the same compound?
**A.** decreased below baseline

**Q.** What about the “median C-peptide compared to placebo” value (weeks 12 and 24) of the same compound?
**A.** significantly higher

**Q.** What about the “percent time above 180 mg/dl (10 mmol/l) (CGM)” value [1] of the same compound?
**A.** significantly lower

**Q.** What about the “percent time between 70 and 180 mg/dL (3.9 and 10 mmol/L) (CGM)” value [1] of the same compound?
**A.** higher
